Laboratory results taken from the NIST ThermoML archive (doi:10.1016/j.jct.2019.07.007).
± gives the expanded uncertainty stated by the source.

Experiment: wn = mass fraction of the nth substance listed
Settings: 101 kPa, Liquid, Concentric cylinders viscometry

CC(O)CN(C)C (centres undefined) [1-(dimethylamino)-2-propanol] + O
viscosity [mPa·s]
Settings	303.2 K	313.2 K	323.2 K
w1 = 0.3	3.1 ± 0.25	2.18 ± 0.22	1.66 ± 0.21
w1 = 0.4	4.56 ± 0.28	3.08 ± 0.22	2.19 ± 0.2
w1 = 0.5	6.01 ± 0.25	3.96 ± 0.24	2.79 ± 0.21
